Test results taken from PubChem BioAssay (NCI).
Several values for one entry are separate records, joined by “and”; a condition that tells them apart may be missing. Equal values may be shown once.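 Results reflect a 48-hour exposure of cells in 96-well plates to compound at five concentrations. The concentration for 50% growth inhibition is given as GI50. The concentration for full growth arrest is given as TGI.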

Tests used:
Assay in all cases: NCI tumour cell line growth inhibition, 48 h
MDA-MB-435 = tested on: MDA-MB-435
RXF 393 renal = tested on: RXF 393 renal
A549 NSCLC = tested on: A549 NSCLC
CCRF-CEM leukemia = tested on: CCRF-CEM leukemia
IGROV1 ovarian = tested on: IGROV1 ovarian
HOP-92 NSCLC = tested on: HOP-92 NSCLC
UO-31 renal = tested on: UO-31 renal
T-47D breast = tested on: T-47D breast
M14 melanoma = tested on: M14 melanoma
SN12C renal = tested on: SN12C renal

Row | SMILES | GI50 (MDA-MB-435) | TGI (MDA-MB-435) | GI50 (RXF 393 renal) | TGI (RXF 393 renal) | GI50 (A549 NSCLC) | TGI (A549 NSCLC) | GI50 (CCRF-CEM leukemia) | TGI (CCRF-CEM leukemia) | GI50 (IGROV1 ovarian) | TGI (IGROV1 ovarian) | GI50 (HOP-92 NSCLC) | TGI (HOP-92 NSCLC) | GI50 (UO-31 renal) | TGI (UO-31 renal) | GI50 (T-47D breast) | TGI (T-47D breast) | GI50 (M14 melanoma) | TGI (M14 melanoma) | GI50 (SN12C renal) | TGI (SN12C renal)
1 | O=C1/C(=C\c2ccc(Cl)cc2)CN(C(=O)c2ccccc2)C/C1=C\c1ccc(Cl)cc1 | 2.58 µM | 8.04 µM | 1.68 µM | 3.26 µM | 3.15 µM | > 45.6 µM | 2.5 µM | > 70.2 µM | 3.22 µM | 9.78 µM | 7.18 µM | 55.9 µM | 1.83 µM | 5.33 µM | 4.33 µM | > 100 µM | 2.63 µM | 7.39 µM | 2.16 µM | 5.4 µM
2 | Clc1ccc(Nc2ncnc3ccccc23)cc1 | 42.2 µM | > 100 µM | 47.7 µM | > 100 µM | 47.6 µM | > 100 µM | 48.8 µM | > 100 µM | 12.9 µM | > 100 µM | 13.8 µM | 73.2 µM | 61 µM | > 100 µM | 80 µM | > 100 µM | 54.9 µM | > 100 µM | 23 µM | 73.1 µM
3 | CCOC(=O)c1c2c(n(Cc3ccccc3)c1C)-c1nc[nH]c1C(=O)C2=O | 16.9 µM | 31.3 µM | 11.2 µM | 23.2 µM | 11.8 µM | 25.9 µM | 1.57 µM | 7.87 µM | 16.7 µM | 30.6 µM | 0.0891 µM | 18.9 µM | 14.7 µM | 28.4 µM | 11.4 µM | 30.7 µM | 21.4 µM | 37.9 µM | 16.4 µM | 30 µM
4 | COc1cc2cc(Oc3ccc(NC(=O)Nc4ccc(F)c(C(F)(F)F)c4)cc3)c(C)nc2cc1OCCN1CCOCC1 | 1.91 µM | 3.9 µM | 1.78 µM | 3.94 µM | 2.57 µM | 34.3 µM | 1.72 µM | 11.5 µM | 2.69 µM | 19.5 µM | 1.31 µM | 4.96 µM | 1.71 µM | 10.6 µM | 1.91 µM | 32.1 µM | 1.53 µM | 3.31 µM | 2.65 µM | 15.5 µM
5 | O=C1NC(=N[C@@H]2C[C@H]2c2ccccc2)S/C1=C\c1ccc2ncccc2c1 | 0.688 µM | 2.85 µM | 1.12 µM | 4.84 µM | 0.976 µM | 6.71 µM | 1.31 µM | > 25 µM | 2.66 µM | 11.9 µM | 3.68 µM | 10.1 µM | 2.06 µM | 6.78 µM | 1.81 µM | 13.8 µM | 1.34 µM | > 25 µM | 1.68 µM | > 25 µM
6 | O=C(CSc1nc2ccc([N+](=O)[O-])cc2[nH]1)Nc1ccc([N+](=O)[O-])cc1 | 2.66 µM | 12.7 µM | 1.95 µM | 7.24 µM | 2.94 µM | 14.2 µM | 2.48 µM | > 100 µM | 2.71 µM | 15.2 µM | 0.293 µM | 2.22 µM | 1.4 µM | 8.18 µM | 1.59 µM | 12.9 µM | 2.73 µM | 19.9 µM | 2.26 µM | 10.6 µM
7 | CCN1C2=C(SC(=S)C1=C1SC(C(=O)c3ccccc3)=C(C(=O)c3ccccc3)S1)SC(=Nc1ccccc1)C2=O | 9.41 µM | > 100 µM | 9.09 µM | > 45.3 µM | > 100 µM | > 100 µM | 0.633 µM | > 100 µM | 23 µM | > 100 µM | 22.5 µM | > 100 µM | 5.9 µM | > 100 µM | 19.6 µM | > 100 µM | > 100 µM | > 100 µM | 46 µM | > 100 µM
8 | CC(C)c1ccc2c(c1)CCC1C(C)(CN)CCCC21C (stereo unspecified) | – | 2.89 µM | – | 2.98 µM | – | 3.37 µM | – | 3.92 µM | – | 2.93 µM | – | 2.97 µM | – | 2.66 µM | – | 3.3 µM | – | 3.1 µM | – | 3.16 µM
9 | CCOC(=O)Cc1csc(Nc2nc(O)c(C3=c4ccccc4=NC3=O)s2)n1 | 40.9 µM | > 100 µM | 41.3 µM | > 100 µM | 32.4 µM | > 100 µM | 21.1 µM | 50.8 µM | 27.2 µM | 69 µM | 22.2 µM | 52.3 µM | 23 µM | 51.6 µM | 54.4 µM | > 100 µM | – | – | 28 µM | 98.2 µM
10 | O=C(O)c1cc(C(=O)C(=O)c2cc(C(=O)O)c(O)c3ccccc23)c2ccccc2c1O | – | > 100 µM | – | > 100 µM | – | > 100 µM | – | – | – | > 100 µM | – | > 100 µM | – | > 100 µM | – | > 100 µM | – | > 100 µM | – | > 100 µM
11 | Fc1ccc(-c2nn3c(COc4ccccc4Cl)nnc3s2)cc1Oc1ccccc1 | 33.2 µM | > 100 µM | > 100 µM | > 100 µM | 40.2 µM | > 100 µM | > 100 µM | > 100 µM | 31 µM | > 100 µM | 15.2 µM | 45.6 µM | 27.1 µM | > 100 µM | 34.5 µM | > 100 µM | 24.4 µM | 54.7 µM | 20.8 µM | 56.6 µM
12 | COc1cccc(Nc2ncnn3ccc(CN4CC[C@@H](N)[C@H](O)C4)c23)c1 | 14.8 µM and > 4.71 µM | 29.9 µM and > 10 µM | 0.601 µM and 0.405 µM | 5.11 µM and 2.41 µM | 2.22 µM and 0.928 µM | 23.6 µM and > 7.05 µM | 25.2 µM and > 4.58 µM | > 100 µM | 0.407 µM and 0.0561 µM | 6.79 µM and 2.73 µM | 0.125 µM and 0.194 µM | 5.21 µM and > 6.86 µM | 0.145 µM and 0.132 µM | 5.02 µM and 4.12 µM | – | 29.2 µM and > 6.86 µM | 20.4 µM and > 5.03 µM | 36 µM and > 10 µM | 0.265 µM and 0.304 µM | 18.5 µM and > 10 µM
13 | CC[n+]1c(/C=C/c2ccc(N3CCCC3)cc2)cccc1/C=C/c1ccc(N2CCCC2)cc1 | 0.343 µM | 2.34 µM | 0.207 µM | 1.51 µM | 0.296 µM and 0.26 µM | 1.65 µM and 0.919 µM | – | – | 0.532 µM | 2.4 µM | 0.342 µM | 1.41 µM | 0.376 µM | 1.6 µM | 0.0332 µM | 0.931 µM | 0.345 µM | 1.85 µM | 0.217 µM and 0.271 µM | 1.14 µM and 1.06 µM
14 | CCOC(=O)c1cc2c(OC)cc(OC)cc2oc1=O | – | > 100 µM | – | > 100 µM | – | > 100 µM | – | > 100 µM | – | > 100 µM | – | > 100 µM | – | – | – | > 100 µM | – | > 100 µM | – | > 100 µM
15 | COc1ncnn2ccc(-c3cnc4nc(C)n(Cc5nnc(C(C)F)o5)c4c3)c12 (stereo unspecified) | 0.223 µM | > 100 µM | 0.247 µM | 0.665 µM | 0.136 µM | > 100 µM | 0.11 µM | > 74.6 µM | 0.235 µM | > 64.3 µM | 0.204 µM | 2 µM | – | – | 0.0853 µM | > 100 µM | 0.24 µM | > 40.5 µM | 0.255 µM | > 58.1 µM
16 | NNC(=S)N/N=C/c1ccccn1 | 5.2 µM | > 100 µM | 2.5 µM | > 100 µM | 3.14 µM | > 100 µM | 2.05 µM | > 100 µM | 3.05 µM | > 100 µM | 0.887 µM | 8.2 µM | 3.99 µM | > 100 µM | 2.44 µM | > 100 µM | – | – | 2.61 µM | > 100 µM
17 | Cc1ccc([I+]c2ccc(C)cc2)cc1 | 5.28 µM | 77.3 µM | 36.6 µM | > 100 µM | 4.22 µM | > 100 µM | – | – | 4.42 µM | > 100 µM | 4.69 µM | > 100 µM | 21.3 µM | > 100 µM | 3.69 µM | 54.2 µM | 10.8 µM | > 100 µM | 18.6 µM | > 100 µM
18 | Oc1c(CCl)cc(Cl)cc1Cc1cc(Cl)cc(Cc2cc(Cl)cc(CCl)c2O)c1O | 3.89 µM | 21.4 µM | 2.59 µM | 9.43 µM | 4.67 µM | 29.3 µM | – | – | 3.79 µM | 16.7 µM | 1.91 µM | 5.81 µM | 2.92 µM | 11.8 µM | 2.21 µM | 9.39 µM | 3.54 µM | 15.7 µM | 2.56 µM | 8.79 µM
19 | CC(=O)N[C@@H](Cc1ccc(OP(=O)(O)O)cc1)C(=O)N[C@H]1CCC(=O)N2CCC[C@@H](C(=O)NCc3cccc4ccccc34)N2C1=O | > 25 µM | > 25 µM | > 25 µM | > 25 µM | > 25 µM | > 25 µM | > 25 µM | > 25 µM | > 25 µM | > 25 µM | – | – | > 25 µM | > 25 µM | > 25 µM | > 25 µM | > 25 µM | > 25 µM | > 25 µM | > 25 µM
20 | O=C(/C=C/c1cccnc1)c1ccccc1 | 12.4 µM | 26.7 µM | 10.9 µM | 23.2 µM | 17.2 µM | 34.2 µM | 3.2 µM | 9.91 µM | 4.97 µM | 25.6 µM | 4.62 µM | 19.2 µM | 11.4 µM | 25.5 µM | 12.4 µM | 28.6 µM | – | – | 12.2 µM | 25.9 µM
